The source of these data is patent publication US20240335395A1, “COMPOSITIONS AND METHODS FOR PREVENTING AND/OR TREATING DISEASE ASSOCIATED WITH IL-23 EXPRESSION” (ALLSPIM, priority 2021, published 2024).

Some results are limits rather than exact numbers.

For one test, the system named is IL-10. Briefly: MSU-induced IL-10 in knee joint tissue (multiplex microassay). It is filed as in vivo, mouse. Particulars: 2,4-D 100 mg/kg, DEX 0.5 mg/kg. The procedure:
(§1) Mice (six per group) were treated with 2,4-D (100 mg/kg or 20 mg/kg, i.p.), CLC (1 mg/kg or 0.2 mg/kg, i.p.), DEX (0.5 mg/kg or 0.1 mg/kg, i.p.), or vehicle (20% polyoxyethylenesorbitan monooleate (Tween 80) plus PBS) 30 min before intra-articular stimulus with MSU (100 μg/10 μL, i.a.). Six mice with intra-articular injection with PBS alone served as a negative control.
(§2) Induction of MSU-Induced Knee Joint Inflammation. Male ICR (CD-1) mice (35-45 g, 10-12 weeks) were purchased from VitalRiver Inc (Beijing, China) and were kept in an animal care facility under controlled temperature of 21±1° C., humidity, and on a light/dark cycle, with ad libitum access to water and standard laboratory chow diet. Animal care and handling procedures were approved by the Animal Ethics Committee of GZUCM (Guangzhou University of Chinese Medicine). All efforts were made to minimize animal suffering and to reduce the number of animals used. Joint inflammation was induced by the intra-articular (i.a.) administration of MSU (200 μg/20 μl) into the right and left knee joints of mice under inhaled 3% isoflurane anesthesia. Control animals received an injection (i.a.) of sterile PBS (20 μL).
(§3) Cytokine Measurement. Mice were anesthetized and sacrificed. Knee joints were collected and frozen in liquid nitrogen. Samples were then homogenized in 500 μl of buffer containing protease inhibitors, centrifuged (3600 rpm, 4° C., 15 min) and supernatants were used to determine Th1/Th2/Th17 cytokine levels using a multiplex microassay (Qantibody® mouse TH17 Array 1 kit, Cat. No.: QAM-TH17-1; RayBiotech, Norcross, GA). Results were expressed as picograms (pg) of cytokine/mg of tissue.
(§4) Statistical Analysis. […] For in vitro experiments, microassays were performed in quadruplicate. p<0.05 was considered significant (*p<0.05, **p<0.01, ***p<0.001).

Another test relates to IL-6. Put plainly: MSU-induced IL-6 in knee joint tissue (multiplex microassay). Type of test: in vivo, mouse. Particulars: 2,4-D 100 mg/kg, CLC 1 mg/kg, DEX 0.5 mg/kg. The procedure: as §1, §2, §3, §4
The next test deals with IL-1ß. Briefly: MSU-induced IL-1ß in knee joint tissue (multiplex microassay). The note with it: 2,4-D 100 mg/kg, CLC 1 mg/kg, DEX 0.5 mg/kg. It is filed as in vivo, mouse. The procedure: as §1, §2, §3, §4
In test [1] the test system is MSU-induced knee joint edema. Put plainly: MSU-induced knee joint edema in mice. Type of test: in vivo, mouse. The note with it: 20 h. The procedure: (§5) 2,4-D, isolated and purified from Chloranthus spicatus (purity≥98%), was purchased from BOC Science (Shirley, NY). Colchicine (CLC) (purity≥96%) and dexamethasone (DEX) (purity≥98%) were purchased from Sigma. Mice (six per group) were treated with 2,4-D (100 mg/kg or 20 mg/kg, i.p.), CLC (1 mg/kg or 0.2 mg/kg, i.p.), DEX (0.5 mg/kg or 0.1 mg/kg, i.p.), or vehicle (20% polyoxyethylenesorbitan monooleate (Tween 80) plus PBS) 30 min before intra-articular stimulus with MSU (100 μg/10 μL, i.a.). Six mice with intra-articular injection with PBS alone served as a negative control.
Preparation of monosodium urate crystal (MSU). MSU crystals were prepared as described previously (Ruiz-Miyazawa et al., 2017). Briefly, 800 mg of monosodium urate was dissolved in 155 ml of boiling milli-Q water containing 2N NaOH. After pH adjustment to 8.9, the solution was cooled gradually by stirring at room temperature and crystallized overnight at 4° C. Crystals were collected, and centrifuged at 3,000×g for 2 min at 4° C. The crystals were evaporated and sterilized by heating at 180° C. for 2 h and stored in a sterile environment until use. The load of endotoxin present in the MSU crystals was determined using a ToxinSensor^TM Single Test Kit (GenScript).
as §2
Evaluation of Knee Joint Edema. Knee joint edema was determined with a caliper (Mitutoyo) before (zero time), and after the intra-articular injection with MSU at the times indicated. Knee joint edema was determined for each mouse by the difference between the time points indicated on figures and the zero time (Ruiz-Miyazawa et al, 2017). The edema value is represented as Amm/joint.
Statistical Analysis. Data were analyzed using GraphPad Prism statistical software (GraphPad Software, Inc., United States-500.288, version 5.0). Results are presented as means±SEM or SD of measurements made on 6 mice per group, with statistical significance determined by two-way ANOVA, comparing each group to the control (“Model”) group. For in vitro experiments, microassays were performed in quadruplicate. p<0.05 was considered significant (*p<0.05, **p<0.01, ***p<0.001).

The test system of another test is TNF-alpha. Briefly: MSU-induced TNF-alpha in knee joint tissue (multiplex microassay). Type of test: in vivo, mouse. Particulars: 2,4-D 100 mg/kg, CLC 1 mg/kg, DEX 0.5 mg/kg. The procedure: as §1, §2, §3, §4
The subject of test [2] is IL-17/IL-23 and TNF signature cytokines and chemokines. Put plainly: Release of IL-17/IL-23 and TNF signature cytokines and chemokines into supernatant of LPS-stimulated THP-1 cells (ELISA). Type of test: cell-based, human. The note with it: 24 h. The procedure:
(§6) Sample Collection and Preparation. THP-1 cells, a human leukemia monocyte-derived cell line, have been widely used as a model to study the modulation of the immune response and the function of monocytes and monocyte-derived macrophages. Here, lipopolysaccharide (LPS)-stimulated THP-1 cells were used as a model to study the cytokine storm in vitro (Chanput et al., 2014). THP-1 cells (purchased from American Type Culture Collection, Rockville, MD) were grown in RPMI 1640 culture medium (Gibco) supplemented with 10% fetal bovine serum (FBS) (Gibco, UK), 0.05 mM 2-mercaptoethanol, and 1% penicillin/streptomycin (Invitrogen) at 37° C. in 5% CO2 in a humidified incubator. Cultured cells were plated into culture plates in appropriate volumes with a cell density of 5×10^5 cells/ml. 2,4-D was purchased from Wuhan ChemFaces Biochemical Co., Ltd (Hubei, China) and tested for cytotoxicity in THP-1 cells overnight using a commercial MTT Cell Proliferation and Cytotoxicity Assay Kit (Beyotime, Shanghai, China). […]
ELISA. […] Culture supernatants were measured according to the manufacturer's instructions. A Varioskan LUX microplate reader (Thermo Fisher, USA) was used for the assay and 4-parameter logistic regression was used for data analysis. […] Data are expressed as mean±SD. […]
On the technique in general: An ELISA detects its analyte on a solid surface through an enzyme-linked reagent.

For test [3], the system named is MSU-induced leukocyte recruitment. Briefly: MSU-induced leukocyte recruitment to the synovial cavity of knee joint. It is filed as in vivo, mouse. The note with it: 20 h; 2,4-D 100 mg/kg, CLC 1 mg/kg, DEX 0.5 mg/kg. The procedure: as §5, §2
Histopathological Analysis. Knee joint was collected 20 h after MSU injection, fixed with 10% paraformaldehyde in PBS, and then decalcified for 10 days with EDTA and embedded in paraffin for histological analysis. […] Results are expressed as leukocytes infiltrate (cell/field) counted at the inflammatory foci within synovial cavity as indicative of synovitis. […]
Statistical Analysis. Data were analyzed using GraphPad Prism statistical software (GraphPad Software, Inc., United States-500.288, version 5.0). Results are presented as means±SEM or SD of measurements made on 6 mice per group, with statistical significance determined by two-way ANOVA, comparing each group to the control (“Model”) group. […]

Test [4] deals with IL-17/IL-23 and TNF signaling pathway-associated cytokine genes and chemokine genes. Briefly: Transcription of IL-17/IL-23 and TNF signature genes in LPS-stimulated THP-1 cells (qPCR). Type of test: cell-based, human. Particulars: 2 h; RPM 5-20 μM. The procedure:
as §6
Real-Time Quantitative PCR. Real-time quantitative PCR was performed in triplicate using the TB Green qPCR master mix (Takara Biomedical Technology Co., Ltd, Dalian, China) on an ABI 7500 Real-Time PCR System (Thermo, USA). […] The ΔΔCT method was used to quantify relative mRNA levels as described above in Example 1 (Applied Biosystems). Data are expressed as mean±SD. […]
On the technique in general: Quantitative PCR measures a nucleic acid by following its amplification.

Regarding `C[C@@H]1C[C@H]2[C@@H]3CCC4=CC(=O)C=C[C@]4(C)[C@@]3(F)[C@@H](O)C[C@]2(C)[C@@]1(O)C(=O)CO` [DEX, dexamethasone], the “decrease of IL-10 in knee joint tissue” value with IL-10 amounted to 1.5 fold. Moreover, the “decrease of IL-6 in knee joint tissue” value with IL-6 is reported as “no effect”. Also, in the test on IL-1ß, the “decrease of IL-1ß in knee joint tissue” value stood at 1.9 fold. Moreover, the “reduction of MSU-induced knee joint edema” value in test [1] (high dose i.p.: 2,4-D 100 mg/kg, CLC 1 mg/kg, DEX 0.5 mg/kg) turned out to be 38.9%; in test [1] (low dose i.p.: 2,4-D 20 mg/kg, DEX 0.1 mg/kg) it was 16.8%. Further, the “decrease of TNF-alpha in knee joint tissue” value with TNF-alpha is reported as 2.0 fold. In test [2] (DEX), the “reduction of release of IL-10, CCL2/MCP-1, CCL3/MIP-1alpha and CCL20/MIP-3alpha” value was 50-90%. Moreover, the “reduction of MSU-induced leukocyte recruitment” value in test [3] is 2.2 fold.
With `CO[C@H]1C[C@@H]2CC[C@@H](C)[C@@](O)(O2)C(=O)C(=O)N2CCCC[C@H]2C(=O)O[C@H]([C@H](C)C[C@@H]2CC[C@@H](O)[C@H](OC)C2)CC(=O)[C@H](C)/C=C(\C)[C@@H](O)[C@@H](OC)C(=O)[C@H](C)C[C@H](C)/C=C/C=C/C=C/1C` [Rapamycin, rapamycin, reference compound], the inhibition at 20 µM in test [2] (Homo sapiens, THP-1, 20 μM, read-out: inhibition of release of IL-1ß, IL-10, TNF-alpha, CCL2/MCP-1, CCL3/MIP-1alpha and CCL20) was less than 50%. For the same compound, the “inhibition of transcription of Tnf, Il1ß, Ccl2 and Ccl3” value in test [4] is recorded as not above 50 fold.
